Measured values from the supplement of paper PMC5908809.

Tests used:
[1] = tested on: normal NK cells expanded with K562-aAPC; test: percent inhibition of viability; higher = more inhibition; conditions: 72 h, IL-2 2.5 ng/mL
Experimental: (§1)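 Drug sensitivity and resistance testing on K562-aAPC-expanded normal NK cells: 5 concentrations (10-fold steps over a 10,000-fold range), 72 h at 37 °C, viability by CellTiter-Glo normalised to DMSO and benzethonium chloride controls; DSS from the fitted curve.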

DERL-7 (IL-2 2.5 ng/mL) [2] = test: as above; conditions: 72 h
IMC-1 (IL-2 20 ng/mL) [3] = test: as above; conditions: 72 h
KAI3 (IL-2 2.5 ng/mL) [4] = test: as above; conditions: 72 h
KHYG-1 (IL-2 2.5 ng/mL) [5] = test: as above; conditions: 72 h
NK-92 (IL-2 2.5 ng/mL) [6] = test: as above; conditions: 72 h
NK-YS (IL-2 2.5 ng/mL) [7] = test: as above; conditions: 72 h
NKL (IL-2 2.5 ng/mL) [8] = test: as above; conditions: 72 h
SNK-6 (IL-2 2.5 ng/mL) [9] = test: as above; conditions: 72 h
YT (IL-2 2.5 ng/mL) [10] = test: as above; conditions: 72 h
[11] = tested on: normal primary NK cells, pool 1 (3 donors) (IL-2 2.5 ng/mL); test: as above; conditions: 72 h
[12] = tested on: normal primary NK cells, pool 1 (3 donors), resting (IL-2 0 ng/mL); test: as above; conditions: 72 h
[13] = tested on: normal primary NK cells, pool 2 (3 donors) (IL-2 2.5 ng/mL); test: as above; conditions: 72 h
[14] = tested on: normal primary NK cells, pool 3 (3 donors) (IL-2 2.5 ng/mL); test: as above; conditions: 72 h
[15] = tested on: normal NK cells expanded with K562-aAPC; test: drug sensitivity score (DSS) (DSS units); higher = more sensitive; extreme values may be limits of the assay; conditions: 72 h; IL-2 2.5 ng/mL
Experimental: as §1

DERL-7 (IL-2 2.5 ng/mL) [16] = test: as above; conditions: 72 h
IMC-1 (IL-2 20 ng/mL) [17] = test: as above; conditions: 72 h
KAI3 (IL-2 2.5 ng/mL) [18] = test: as above; conditions: 72 h
KHYG-1 (IL-2 2.5 ng/mL) [19] = test: as above; conditions: 72 h
NK-92 (IL-2 2.5 ng/mL) [20] = test: as above; conditions: 72 h
NK-YS (IL-2 2.5 ng/mL) [21] = test: as above; conditions: 72 h
NKL (IL-2 2.5 ng/mL) [22] = test: as above; conditions: 72 h
SNK-6 (IL-2 2.5 ng/mL) [23] = test: as above; conditions: 72 h
YT (IL-2 2.5 ng/mL) [24] = test: as above; conditions: 72 h
[25] = tested on: normal primary NK cells, pool 1 (3 donors) (IL-2 2.5 ng/mL); test: as above; conditions: 72 h
[26] = tested on: normal primary NK cells, pool 1 (3 donors), resting (IL-2 0 ng/mL); test: as above; conditions: 72 h
[27] = tested on: normal primary NK cells, pool 2 (3 donors) (IL-2 2.5 ng/mL); test: as above; conditions: 72 h
[28] = tested on: normal primary NK cells, pool 3 (3 donors) (IL-2 2.5 ng/mL); test: as above; conditions: 72 h

CNC(=O)c1ccc(C)c(-n2c(C)cc(OCc3ccc(F)cc3F)c(Br)c2=O)c1 (max concentration tested 1000 nM)
percent inhibition of viability [%]
Conditions | 0.1 nM | 1 nM | 10 nM | 100 nM | 1000 nM
DERL-7 (IL-2 2.5 ng/mL) [2] | -0.31 | -4.89 | -4.27 | 2.58 | 1.48
IMC-1 (IL-2 20 ng/mL) [3] | -9.65 | -8.9 | -7.96 | -3.82 | 12.4
KAI3 (IL-2 2.5 ng/mL) [4] | -0.38 | 1.93 | 8.49 | 20.8 | 36
KHYG-1 (IL-2 2.5 ng/mL) [5] | -4.44 | -7.81 | -8.38 | -3.53 | 12.3
NK-92 (IL-2 2.5 ng/mL) [6] | -1.67 | -6.84 | -3.84 | -1.12 | 28.7
NK-YS (IL-2 2.5 ng/mL) [7] | -6.34 | -5.21 | 0.76 | 7.92 | 26.5
NKL (IL-2 2.5 ng/mL) [8] | -10.5 | -7 | 9.32 | 26.1 | 43.8
SNK-6 (IL-2 2.5 ng/mL) [9] | -18.8 | -0.3 | -20.7 | -13.9 | -14.7
YT (IL-2 2.5 ng/mL) [10] | -3.68 | -3.72 | -2.87 | 1.27 | 21.9
[1] | -9.29 | -8.5 | -9.81 | -3.39 | 11.1
[11] | 0.91 | 0.08 | 13.3 | 13.8 | 17.8
[12] | 4.88 | 3.54 | 13.7 | 4.12 | 7.14
[13] | -5.3 | -4.39 | 0.85 | -1.04 | -5.85
[14] | -6.51 | -4.02 | 4.48 | 7.49 | 0.09

Conditions | drug sensitivity score
DERL-7 (IL-2 2.5 ng/mL) [16] | 0
IMC-1 (IL-2 20 ng/mL) [17] | 0.02
KAI3 (IL-2 2.5 ng/mL) [18] | 4.23
KHYG-1 (IL-2 2.5 ng/mL) [19] | 0.02
NK-92 (IL-2 2.5 ng/mL) [20] | 1.12
NK-YS (IL-2 2.5 ng/mL) [21] | 2.15
NKL (IL-2 2.5 ng/mL) [22] | 5.52
SNK-6 (IL-2 2.5 ng/mL) [23] | 0
YT (IL-2 2.5 ng/mL) [24] | 0.89
[15] | 0
[25] | 3.24
[26] | 0
[27] | 0
[28] | 0

COc1cc2nccc(Oc3ccc(NC(=O)C4(C(=O)Nc5ccc(F)cc5)CC4)cc3)c2cc1OC [Cabozantinib] (max concentration tested 1000 nM)
percent inhibition of viability [%]
Conditions | 0.1 nM | 1 nM | 10 nM | 100 nM | 1000 nM
DERL-7 (IL-2 2.5 ng/mL) [2] | 4.09 | 2.17 | 6.31 | -1.21 | 8.67
IMC-1 (IL-2 20 ng/mL) [3] | -7.19 | 0.46 | 1.98 | 6.03 | 8.61
KAI3 (IL-2 2.5 ng/mL) [4] | -1.21 | 2.25 | 0.33 | -5.2 | 0.09
KHYG-1 (IL-2 2.5 ng/mL) [5] | -1.92 | 1.46 | 4.91 | 3.42 | 7.82
NK-92 (IL-2 2.5 ng/mL) [6] | 1.61 | 12.2 | 13.4 | 2.98 | 25.1
NK-YS (IL-2 2.5 ng/mL) [7] | -3.98 | -1.22 | 1.67 | -2.46 | 0.65
NKL (IL-2 2.5 ng/mL) [8] | -19 | -5.16 | -4.38 | -6.13 | 19.2
SNK-6 (IL-2 2.5 ng/mL) [9] | 7.18 | 7.13 | 10.3 | -6.13 | -0.11
YT (IL-2 2.5 ng/mL) [10] | -1.79 | -0.81 | 0.31 | 0.38 | 11.3
[1] | -0.51 | 2.22 | 1.52 | 13.2 | 5.74
[11] | -2.72 | -8.6 | -1.12 | -10.1 | -9.52
[12] | 8.87 | -5.07 | -5.31 | -16.9 | 11.5
[13] | -8.26 | 3.55 | 9.65 | -7.89 | 11.1
[14] | -18.8 | -3.79 | 10.5 | -12.7 | -3.82

Conditions | drug sensitivity score
DERL-7 (IL-2 2.5 ng/mL) [16] | 0
IMC-1 (IL-2 20 ng/mL) [17] | 0
KAI3 (IL-2 2.5 ng/mL) [18] | 0
KHYG-1 (IL-2 2.5 ng/mL) [19] | 0
NK-92 (IL-2 2.5 ng/mL) [20] | 1.73
NK-YS (IL-2 2.5 ng/mL) [21] | 0
NKL (IL-2 2.5 ng/mL) [22] | 0.33
SNK-6 (IL-2 2.5 ng/mL) [23] | 0
YT (IL-2 2.5 ng/mL) [24] | 0.02
[15] | 0
[25] | 0
[26] | 0.01
[27] | 0
[28] | 0

CC(C)N(CCCNC(=O)Nc1ccc(C(C)(C)C)cc1)C[C@H]1O[C@@H](n2cc(Br)c3c(N)ncnc32)[C@H](O)[C@@H]1O [SGC0946] (max concentration tested 10000 nM)
percent inhibition of viability [%]
Conditions | 1 nM | 10 nM | 100 nM | 1000 nM | 10000 nM
DERL-7 (IL-2 2.5 ng/mL) [2] | 4.94 | 2.4 | 5.77 | 1.04 | 37
IMC-1 (IL-2 20 ng/mL) [3] | -8.07 | -3.94 | -2.69 | 2.99 | 17.2
KAI3 (IL-2 2.5 ng/mL) [4] | 2.28 | -1.4 | -1.58 | 5.53 | 72.2
KHYG-1 (IL-2 2.5 ng/mL) [5] | -5.1 | -1.55 | -1.47 | 1.03 | 17
NK-92 (IL-2 2.5 ng/mL) [6] | -2.74 | -1.7 | 19.9 | 10.5 | 40.7
NK-YS (IL-2 2.5 ng/mL) [7] | -4.5 | -0.39 | 3.77 | -0.01 | 21.5
NKL (IL-2 2.5 ng/mL) [8] | -15 | -7.75 | 4.16 | 0.58 | 33.7
SNK-6 (IL-2 2.5 ng/mL) [9] | -6.32 | -2.25 | 0.17 | 25.4 | 38.7
YT (IL-2 2.5 ng/mL) [10] | -3.26 | -3.19 | 0.56 | 0.95 | 27.2
[1] | -2.37 | -3.94 | 1.95 | 8.9 | 10.9
[11] | 8.37 | -3.22 | 1.91 | -6.49 | 19
[12] | 15.8 | -4.32 | 5.19 | -6.57 | 62.3
[13] | -1.67 | -6.15 | 8.39 | -1.8 | 25.8
[14] | -5.94 | -2.43 | 8.64 | 3.42 | 22.6

Conditions | drug sensitivity score
DERL-7 (IL-2 2.5 ng/mL) [16] | 1.92
IMC-1 (IL-2 20 ng/mL) [17] | 0.74
KAI3 (IL-2 2.5 ng/mL) [18] | 4.84
KHYG-1 (IL-2 2.5 ng/mL) [19] | 0.48
NK-92 (IL-2 2.5 ng/mL) [20] | 3.88
NK-YS (IL-2 2.5 ng/mL) [21] | 0.7
NKL (IL-2 2.5 ng/mL) [22] | 1.63
SNK-6 (IL-2 2.5 ng/mL) [23] | 4.92
YT (IL-2 2.5 ng/mL) [24] | 1.23
[15] | 0.11
[25] | 0.32
[26] | 2.93
[27] | 0.89
[28] | 1.29
